Values joined by “and” are separate entries in the source; they are usually repeats but may differ in a detail not shown here. Equal values may be shown once.
Conditions: for mass density / vapor or sublimation pressure / viscosity / speed of sound: Liquid; for mass density: Vibrating tube method; for vapor or sublimation pressure: Ebulliometric method (Recirculating still); for surface tension liquid-gas: Drop volume; for viscosity: Capillary tube (Ostwald / Ubbelohde) method; for speed of sound: Frequency=3 MHz, Single path-length method

CCc1cccs1 [2-ethylthiophene]
Conditions | mass density | speed of sound [m/s] | viscosity [mPa·s]
295.65 K, 100 kPa | 990.88 kg/m3 | – | –
298.15 K, 100 kPa | 988.39 kg/m3 and 988.37 kg/m3 | 1295.8 | 0.7345
298.15 K, 2000 kPa | 989.91 kg/m3 | – | –
298.15 K, 5000 kPa | 992.26 kg/m3 | – | –
298.15 K, 7000 kPa | 993.8 kg/m3 | – | –
298.15 K, 10000 kPa | 996.05 kg/m3 | – | –
298.15 K, 15000 kPa | 999.7 kg/m3 | – | –
298.15 K, 20000 kPa | 1003.24 kg/m3 | – | –
298.15 K, 25000 kPa | 1006.67 kg/m3 | – | –
298.15 K, 30000 kPa | 1009.97 kg/m3 | – | –
298.15 K, 35000 kPa | 1013.18 kg/m3 | – | –
298.15 K, 40000 kPa | 1016.3 kg/m3 | – | –
298.15 K, 45000 kPa | 1019.31 kg/m3 | – | –
298.15 K, 50000 kPa | 1022.24 kg/m3 | – | –
298.15 K, 55000 kPa | 1025.1 kg/m3 | – | –
298.15 K, 60000 kPa | 1027.87 kg/m3 | – | –
298.15 K, 65000 kPa | 1030.59 kg/m3 | – | –
300.65 K, 100 kPa | 985.87 kg/m3 | 1285.4 | 0.7148
303.15 K, 100 kPa | 983.42 kg/m3 and 983.36 kg/m3 | 1276.5 | 0.696
303.15 K, 2000 kPa | 984.97 kg/m3 | – | –
303.15 K, 5000 kPa | 987.39 kg/m3 | – | –
303.15 K, 7000 kPa | 988.98 kg/m3 | – | –
303.15 K, 10000 kPa | 991.3 kg/m3 | – | –
303.15 K, 15000 kPa | 995.04 kg/m3 | – | –
303.15 K, 20000 kPa | 998.67 kg/m3 | – | –
303.15 K, 25000 kPa | 1002.17 kg/m3 | – | –
303.15 K, 30000 kPa | 1005.54 kg/m3 | – | –
303.15 K, 35000 kPa | 1008.81 kg/m3 | – | –
303.15 K, 40000 kPa | 1012 kg/m3 | – | –
303.15 K, 45000 kPa | 1015.07 kg/m3 | – | –
303.15 K, 50000 kPa | 1018.07 kg/m3 | – | –
303.15 K, 55000 kPa | 1020.99 kg/m3 | – | –
303.15 K, 60000 kPa | 1023.81 kg/m3 | – | –
303.15 K, 65000 kPa | 1026.56 kg/m3 | – | –
305.65 K, 100 kPa | 980.85 kg/m3 | 1266.7 | 0.678
308.15 K, 100 kPa | 978.38 kg/m3 and 978.33 kg/m3 | 1256.8 | 0.6606
308.15 K, 2000 kPa | 979.99 kg/m3 | – | –
308.15 K, 5000 kPa | 982.48 kg/m3 | – | –
308.15 K, 7000 kPa | 984.11 kg/m3 | – | –
308.15 K, 10000 kPa | 986.49 kg/m3 | – | –
308.15 K, 15000 kPa | 990.33 kg/m3 | – | –
308.15 K, 20000 kPa | 994.05 kg/m3 | – | –
308.15 K, 25000 kPa | 997.63 kg/m3 | – | –
308.15 K, 30000 kPa | 1001.09 kg/m3 | – | –
308.15 K, 35000 kPa | 1004.45 kg/m3 | – | –
308.15 K, 40000 kPa | 1007.68 kg/m3 | – | –
308.15 K, 45000 kPa | 1010.84 kg/m3 | – | –
308.15 K, 50000 kPa | 1013.88 kg/m3 | – | –
308.15 K, 55000 kPa | 1016.86 kg/m3 | – | –
308.15 K, 60000 kPa | 1019.74 kg/m3 | – | –
308.15 K, 65000 kPa | 1022.56 kg/m3 | – | –
310.65 K, 100 kPa | 975.82 kg/m3 | 1246.5 | 0.6442
313.15 K, 100 kPa | – | – | 0.6282

Conditions | surface tension liquid-gas [mN/m] | vapor or sublimation pressure [kPa]
296.81 K | – | 1.03
298.04 K | – | 1.145
298.15 K | 30.1 | –
299.11 K | – | 1.23
300.65 K | 29.86 | –
302.95 K | – | 1.52
303.15 K | 29.54 | –
305.65 K | 29.3 | –
308.07 K | – | 2.005
308.15 K | 28.96 | –
310.65 K | 28.73 | –
312.28 K | – | 2.55
313.15 K | 28.41 | –

Reference: the NIST ThermoML archive (doi:10.1021/acs.jced.8b00153)
